Solubility test data for 18 molecules are collected here from US9744222B2, “Peptide for vaccine” (Circassia Limited, priority 2007, dated 2017).

Molecules are shown by their SMILES. Where a SMILES comes first, the peptide text is derived from it.

The series in a line: Solubility pre-screen of peptides. To be noted: pre-screened for solubility in an aqueous, acidic milieu; YES/NO.
Description: Methods The assay employed is a competitive MHC class II binding assay, wherein each peptide is analysed for its ability to displace a known control binder from each of the human MHC class II allotypes investigated.
Also shown is the solubility status of the peptide at the highest concentrations in the aqueous solution of the binding assay. The value illustrates the lowest concentration at which an insoluble white precipitate is seen.
On to `CC[C@H](C)[C@H](N)C(=O)N[C@@H](CC(=O)O)C(=O)N[C@@H](CC(C)C)C(=O)N[C@@H](CCCNC(=N)N)C(=O)N[C@@H](CCC(N)=O)C(=O)N[C@@H](CCSC)C(=O)N[C@@H](CCCNC(=N)N)C(=O)N[C@H](C(=O)N[C@H](C(=O)N[C@H](C(=O)N1CCC[C@H]1C(=O)N[C@H](C(=O)N[C@@H](CCCNC(=N)N)C(=O)O)[C@@H](C)CC)[C@@H](C)O)C(C)C)[C@@H](C)O` [HDM01] (H-IDLRQMRTVTPIR-OH; N-terminus and C-terminus assumed), for which the Solubility test result is “YES”. Turning to `CC[C@H](C)[C@H](NC(=O)[C@@H]1CCCN1C(=O)[C@@H](NC(=O)[C@@H](NC(=O)[C@@H](NC(=O)[C@@H](N)CCCNC(=N)N)[C@@H](C)O)C(C)C)[C@@H](C)O)C(=O)N[C@@H](CCCNC(=N)N)C(=O)N[C@@H](CCSC)C(=O)N[C@@H](CCC(N)=O)C(=O)NCC(=O)NCC(=O)N[C@@H](CS)C(=O)NCC(=O)O` [HDM02] (H-RTVTPIRMQGGCG-OH; N-terminus and C-terminus assumed), the Solubility test entry is listed as “YES”. As for `CC(C)C[C@H](NC(=O)[C@H](CC(=O)O)NC(=O)[C@H](CC(C)C)NC(=O)[C@H](CO)NC(=O)[C@H](CCC(N)=O)NC(=O)[C@H](CC(N)=O)NC(=O)[C@@H](N)CCCNC(=N)N)C(=O)N[C@@H](C)C(=O)N[C@@H](CCC(=O)O)C(=O)N[C@@H](CCC(N)=O)C(=O)N[C@@H](CCC(=O)O)C(=O)N[C@@H](CC(C)C)C(=O)N[C@H](C(=O)N[C@@H](CC(=O)O)C(=O)N[C@@H](CS)C(=O)N[C@@H](C)C(=O)N[C@@H](CO)C(=O)N[C@@H](CCC(N)=O)C(=O)N[C@@H](Cc1c[nH]cn1)C(=O)O)C(C)C` [HDM03C] (H-RNQSLDLAEQELVDCASQH-OH; N-terminus and C-terminus assumed), the Solubility test result is “YES”. On to `CC[C@H](C)[C@H](NC(=O)[C@H](Cc1ccc(O)cc1)NC(=O)[C@@H](N)CCC(=O)O)C(=O)N[C@@H](CCC(N)=O)C(=O)N[C@@H](Cc1c[nH]cn1)C(=O)N[C@@H](CC(N)=O)C(=O)NCC(=O)N[C@H](C(=O)N[C@H](C(=O)N[C@@H](CCC(N)=O)C(=O)N[C@@H](CCC(=O)O)C(=O)N[C@@H](CO)C(=O)N[C@@H](Cc1ccc(O)cc1)C(=O)O)C(C)C)C(C)C` [HDM05] (H-EYIQHNGVVQESY-OH; N-terminus and C-terminus assumed), for which the Solubility test result is listed as “YES”. Take `CC(C)[C@H](NC(=O)[C@H](Cc1ccc(O)cc1)NC(=O)[C@@H](N)CCCNC(=N)N)C(=O)N[C@@H](C)C(=O)N[C@@H](CCCNC(=N)N)C(=O)N[C@@H](CCC(=O)O)C(=O)N[C@@H](CCC(N)=O)C(=O)N[C@@H](CO)C(=O)N[C@@H](CS)C(=O)N[C@@H](CCCNC(=N)N)C(=O)N[C@@H](CCCNC(=N)N)C(=O)N1CCC[C@H]1C(=O)N[C@@H](CC(N)=O)C(=O)O` [HDM06] (H-RYVAREQSCRRPN-OH; N-terminus and C-terminus assumed): the Solubility test result is reported as “YES”. Then `CC[C@H](C)[C@H](NC(=O)[C@H](CCCCN)NC(=O)[C@H](CC(N)=O)NC(=O)[C@@H](NC(=O)[C@H](CC(N)=O)NC(=O)[C@@H]1CCCN1)C(C)C)C(=O)N[C@@H](CCCNC(=N)N)C(=O)N[C@@H](CCC(=O)O)C(=O)N[C@@H](C)C(=O)N[C@@H](CC(C)C)C(=O)N[C@@H](C)C(=O)N[C@@H](CCC(N)=O)C(=O)N[C@H](C(=O)O)[C@@H](C)O` [HDM07] (H-PNVNKIREALAQT-OH; N-terminus and C-terminus assumed), with “YES”; and `CC[C@H](C)[C@H](NC(=O)[C@H](CCCCN)NC(=O)[C@@H](N)CC(N)=O)C(=O)N[C@@H](CCCNC(=N)N)C(=O)N[C@@H](CCC(=O)O)C(=O)N[C@@H](C)C(=O)N[C@@H](CC(C)C)C(=O)N[C@@H](C)C(=O)N[C@@H](CCC(N)=O)C(=O)N[C@H](C(=O)N[C@@H](Cc1c[nH]cn1)C(=O)N[C@@H](CO)C(=O)N[C@@H](C)C(=O)O)[C@@H](C)O` [HDM08] (H-NKIREALAQTHSA-OH; N-terminus and C-terminus assumed), with “YES”. On to `CC[C@H](C)[C@H](NC(=O)[C@@H](NC(=O)[C@H](C)NC(=O)[C@@H](NC(=O)[C@H](C)NC(=O)[C@H](CO)NC(=O)[C@H](Cc1c[nH]cn1)NC(=O)[C@@H](NC(=O)[C@H](CCC(N)=O)NC(=O)[C@H](C)NC(=O)[C@H](CC(C)C)NC(=O)[C@H](C)NC(=O)[C@H](CCC(=O)O)NC(=O)[C@@H](N)CCCNC(=N)N)[C@@H](C)O)[C@@H](C)CC)C(C)C)C(=O)O` [HDM09A] (H-REALAQTHSAIAVI-OH; N-terminus and C-terminus assumed), for which the Solubility test entry was “YES”. On to `CC[C@H](C)[C@H](N)C(=O)NCC(=O)N[C@H](C(=O)N[C@@H](CCCCN)C(=O)N[C@@H](CC(=O)O)C(=O)N[C@@H](CC(C)C)C(=O)N[C@@H](CC(=O)O)C(=O)N[C@@H](C)C(=O)N[C@@H](Cc1ccccc1)C(=O)N[C@@H](CCCNC(=N)N)C(=O)N[C@@H](Cc1c[nH]cn1)C(=O)N[C@@H](Cc1ccc(O)cc1)C(=O)N[C@@H](CC(=O)O)C(=O)O)[C@@H](C)CC` [HDM11] (H-IGIKDLDAFRHYD-OH; N-terminus and C-terminus assumed), for which the Solubility test entry was “YES”.

For the molecule `CC(C)C[C@H](NC(=O)[C@H](CC(=O)O)NC(=O)[C@@H](N)CCCCN)C(=O)N[C@@H](CC(=O)O)C(=O)N[C@@H](C)C(=O)N[C@@H](Cc1ccccc1)C(=O)N[C@@H](CCCNC(=N)N)C(=O)N[C@@H](Cc1c[nH]cn1)C(=O)N[C@@H](Cc1ccc(O)cc1)C(=O)N[C@@H](CC(=O)O)C(=O)NCC(=O)N[C@@H](CCCNC(=N)N)C(=O)N[C@H](C(=O)O)[C@@H](C)O` [HDM12] (H-KDLDAFRHYDGRT-OH; N-terminus and C-terminus assumed), the Solubility test entry is reported as “YES”. Turning to `C[C@@H](O)[C@H](NC(=O)[C@H](CC(=O)O)NC(=O)[C@H](Cc1c[nH]c2ccccc12)NC(=O)[C@H](CO)NC(=O)[C@H](CC(N)=O)NC(=O)[C@@H](N)CCCNC(=N)N)C(=O)N[C@@H](CC(N)=O)C(=O)N[C@@H](Cc1c[nH]c2ccccc12)C(=O)NCC(=O)N[C@@H](CC(=O)O)C(=O)N[C@@H](CC(N)=O)C(=O)NCC(=O)N[C@@H](Cc1ccc(O)cc1)C(=O)NCC(=O)O` [HDM16A] (H-RNSWDTNWGDNGYG-OH; N-terminus and C-terminus assumed), the Solubility test entry was “YES”. To `CC(C)C[C@H](NC(=O)[C@H](CC(=O)O)NC(=O)[C@H](CC(C)C)NC(=O)[C@H](CCC(=O)O)NC(=O)[C@H](CO)NC(=O)[C@@H]1CCCN1C(=O)[C@@H](NC(=O)[C@H](CC(N)=O)NC(=O)[C@@H](NC(=O)[C@H](CO)NC(=O)[C@@H](N)CC(N)=O)C(C)C)C(C)C)C(=O)N[C@@H](CCCNC(=N)N)C(=O)N[C@@H](CO)C(=O)N[C@@H](CC(C)C)C(=O)N[C@@H](CCCNC(=N)N)C(=O)N[C@H](C(=O)O)[C@@H](C)O` [HDM17] (H-NSVNVPSELDLRSLRT-OH; N-terminus and C-terminus assumed) belongs “YES”.

Regarding `CC[C@H](C)[C@H](NC(=O)[C@H](CCC(=O)O)NC(=O)[C@H](Cc1c[nH]cn1)NC(=O)[C@H](CC(N)=O)NC(=O)[C@H](C)NC(=O)[C@H](CS)NC(=O)[C@H](CC(=O)O)NC(=O)[C@H](CCCCN)NC(=O)[C@@H](NC(=O)[C@H](CC(=O)O)NC(=O)[C@@H](NC(=O)[C@H](CCC(N)=O)NC(=O)[C@@H](N)CC(=O)O)C(C)C)C(C)C)C(=O)N[C@@H](CCCCN)C(=O)N[C@@H](CCCCN)C(=O)O` [HDM19] (H-DQVDVKDCANHEIKK-OH; N-terminus and C-terminus assumed), the Solubility test result is on record as “YES”. To `CC(C)C[C@H](NC(=O)[C@H](CCC(N)=O)NC(=O)[C@H](Cc1ccccc1)NC(=O)[C@@H]1CCCN1C(=O)[C@@H](N)CCCCN)C(=O)N[C@@H](CCC(=O)O)C(=O)N[C@@H](C)C(=O)N[C@H](C(=O)N[C@@H](Cc1ccccc1)C(=O)N[C@@H](CCC(=O)O)C(=O)N[C@@H](C)C(=O)N[C@@H](CC(N)=O)C(=O)N[C@@H](CCC(N)=O)C(=O)N[C@@H](CC(N)=O)C(=O)N[C@H](C(=O)N[C@@H](CCCCN)C(=O)O)[C@@H](C)O)C(C)C` [HDM21A] (H-KPFQLEAVFEANQNTK-OH; N-terminus and C-terminus assumed) belongs “YES”. In the case of `CC(C)C[C@H](NC(=O)[C@H](CCC(N)=O)NC(=O)[C@H](Cc1ccccc1)NC(=O)[C@@H]1CCCN1C(=O)[C@H](CCCCN)NC(=O)CNC(=O)[C@@H](N)CCCNC(=N)N)C(=O)N[C@@H](CCC(=O)O)C(=O)N[C@@H](C)C(=O)N[C@H](C(=O)N[C@@H](Cc1ccccc1)C(=O)N[C@@H](CCC(=O)O)C(=O)N[C@@H](C)C(=O)N[C@@H](CC(N)=O)C(=O)N[C@@H](CCC(N)=O)C(=O)N[C@@H](CC(N)=O)C(=O)N[C@H](C(=O)O)[C@@H](C)O)C(C)C` [HDM21B] (H-RGKPFQLEAVFEANQNT-OH; N-terminus and C-terminus assumed), the Solubility test entry is recorded as “YES”. Take `CC(C)C[C@H](NC(=O)[C@H](CCC(N)=O)NC(=O)[C@H](Cc1ccccc1)NC(=O)[C@@H]1CCCN1C(=O)[C@@H](N)CCCCN)C(=O)N[C@@H](CCC(=O)O)C(=O)N[C@@H](C)C(=O)N[C@H](C(=O)N[C@@H](Cc1ccccc1)C(=O)N[C@@H](CCC(=O)O)C(=O)N[C@@H](C)C(=O)N[C@@H](CC(N)=O)C(=O)N[C@@H](CCC(N)=O)C(=O)N[C@@H](CC(N)=O)C(=O)N[C@H](C(=O)O)[C@@H](C)O)C(C)C` [HDM21] (H-KPFQLEAVFEANQNT-OH; N-terminus and C-terminus assumed): the Solubility test entry was “YES”.

Take `CC(C)[C@H](NC(=O)[C@H](C)NC(=O)[C@@H](N)CCC(=O)O)C(=O)N[C@@H](Cc1ccccc1)C(=O)N[C@@H](CCC(=O)O)C(=O)N[C@@H](C)C(=O)N[C@@H](CC(N)=O)C(=O)N[C@@H](CCC(N)=O)C(=O)N[C@@H](CC(N)=O)C(=O)N[C@H](C(=O)N[C@@H](CCCCN)C(=O)N[C@H](C(=O)N[C@@H](C)C(=O)N[C@@H](CCCCN)C(=O)O)[C@@H](C)O)[C@@H](C)O` [HDM22A] (H-EAVFEANQNTKTAK-OH; N-terminus and C-terminus assumed): the Solubility test result is on record as “YES”.

For the molecule `CC[C@H](C)[C@H](NC(=O)[C@H](CCC(=O)O)NC(=O)[C@@H](NC(=O)[C@H](CCCCN)NC(=O)[C@H](C)N)[C@@H](C)CC)C(=O)N[C@@H](CCCCN)C(=O)N[C@@H](C)C(=O)N[C@@H](CO)C(=O)N[C@@H](CC(C)C)C(=O)N[C@@H](CC(=O)O)C(=O)NCC(=O)N[C@@H](CC(C)C)C(=O)N[C@@H](CCC(=O)O)C(=O)O` [HDM27] (H-AKIEIKASLDGLE-OH; N-terminus and C-terminus assumed), the Solubility test result is listed as “YES”.
